The record followed here is patent US10513523B2, “Imidazopyrazines and pyrazolopyrimidines and their use as AMPA receptor modulators” (Janssen Pharmaceutica NV, priority 2015, dated 2019).

Sequence of GluA1o-γ8 (GRIA1o-CACNG8 fusion construct; TARP γ8 dependent AMPA receptor) (P42261 other isoform, or with tags, fused parts or gaps): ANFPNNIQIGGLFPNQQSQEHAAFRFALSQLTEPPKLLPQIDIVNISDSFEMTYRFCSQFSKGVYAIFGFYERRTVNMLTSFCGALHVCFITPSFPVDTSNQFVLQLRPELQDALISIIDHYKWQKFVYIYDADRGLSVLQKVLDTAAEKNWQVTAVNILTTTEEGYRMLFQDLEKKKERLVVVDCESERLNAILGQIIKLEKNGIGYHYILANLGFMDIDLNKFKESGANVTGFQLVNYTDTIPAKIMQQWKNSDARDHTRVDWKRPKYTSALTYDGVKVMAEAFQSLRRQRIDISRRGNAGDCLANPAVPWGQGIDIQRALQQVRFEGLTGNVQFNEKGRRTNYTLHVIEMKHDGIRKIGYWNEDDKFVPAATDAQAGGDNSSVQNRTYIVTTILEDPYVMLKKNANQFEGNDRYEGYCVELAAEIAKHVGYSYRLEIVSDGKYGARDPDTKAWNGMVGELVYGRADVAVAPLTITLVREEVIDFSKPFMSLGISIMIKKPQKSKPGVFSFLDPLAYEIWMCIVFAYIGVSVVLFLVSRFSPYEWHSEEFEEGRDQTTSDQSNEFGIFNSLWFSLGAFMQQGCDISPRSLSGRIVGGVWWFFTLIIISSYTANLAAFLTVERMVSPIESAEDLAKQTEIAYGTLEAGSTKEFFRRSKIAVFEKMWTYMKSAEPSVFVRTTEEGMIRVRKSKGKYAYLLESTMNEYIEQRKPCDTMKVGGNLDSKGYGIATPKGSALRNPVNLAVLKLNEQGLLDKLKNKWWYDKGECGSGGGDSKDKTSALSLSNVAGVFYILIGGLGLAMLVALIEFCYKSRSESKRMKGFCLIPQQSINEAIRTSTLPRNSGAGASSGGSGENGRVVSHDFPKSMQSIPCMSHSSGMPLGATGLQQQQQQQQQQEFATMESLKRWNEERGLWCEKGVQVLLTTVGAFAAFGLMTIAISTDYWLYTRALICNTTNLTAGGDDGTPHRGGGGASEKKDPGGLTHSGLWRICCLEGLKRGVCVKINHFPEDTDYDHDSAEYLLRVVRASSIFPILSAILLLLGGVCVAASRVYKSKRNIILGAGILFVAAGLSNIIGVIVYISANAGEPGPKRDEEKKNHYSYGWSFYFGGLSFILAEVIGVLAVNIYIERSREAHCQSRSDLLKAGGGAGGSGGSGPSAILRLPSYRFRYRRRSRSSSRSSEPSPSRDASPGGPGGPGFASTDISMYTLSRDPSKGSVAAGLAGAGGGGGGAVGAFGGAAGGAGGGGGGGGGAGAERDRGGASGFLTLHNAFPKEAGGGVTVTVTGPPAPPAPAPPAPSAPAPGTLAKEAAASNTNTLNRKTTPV

This assay deals with GluA1o-γ8 (GRIA1o-CACNG8 fusion construct; TARP γ8 dependent AMPA receptor) (Homo sapiens (Human), UniProt P42261+Q8WXS5). As to the kind of experiment: Calcium flux assay (FLIPR), inhibition of glutamate response of GluA1o-γ8 channel. It is filed as cell-based. Particulars: HEK293 cells stably expressing GRIA1o-CACNG8 fusion; 15 μM glutamate; pIC50 = negative log of IC50 in molar; read-out: GluR1-γ8 (pIC50) (converted). The source says:
This assay was used to test compounds for their ability to inhibit TARP γ8 dependent AMPA receptor activity. The AMPA receptor is a non-selective cation channel activated by glutamate. Ionotropic glutamate receptors normally desensitize too rapidly to allow detectable calcium influx in a FLIPR assay (Strange et al. (2006). “Functional characterisation of homomeric ionotropic glutamate receptors GluR1-GluR6 in a fluorescence-based high throughput screening assay.” Comb Chem High Throughput Screen 9(2): 147-158). But, this desensitization is incomplete, and a substantial steady-state current remains in the sustained presence of glutamate (Cho et al. (2007). “Two families of TARP isoforms that have distinct effects on the kinetic properties of AMPA receptors and synaptic currents.” Neuron 55(6): 890-904).
An in vitro assay was used to determine the potency of test compounds as inhibitors of the glutamate response of the channel formed by GluA1o-γ8. To ensure a 1:1 stoichiometry of GluA10 and γ8 subunits in the expressed channel, a fusion of the cDNAs for GRIA1o and CACNG8 was used. Following Shi et al (2009) “The stoichiometry of AMPA receptors and TARPs varies by neuronal cell type.” Neuron 62(5): […]), the C-terminus of the cDNA for GRI1o was fused to the N-terminus of the cDNA for γ8. The linker sequence was […]. […] A clonal cell line in HEK293 cells stably expressing this construct, with a geneticin selection marker, was generated for use in this assay. Cell expressing the GRIA1o-CACNG8 fusion construct were grown in a monolayer in 96- or 384-well microtiter plates. They were washed with assay buffer (135 mM NaCl, 4 mM KCl, 3 mM CaCl2, 1 mM MgCl2, 5 mM glucose, 10 mM HEPES, pH 7.4, 300 mOs) using a Biotek EL405 plate washer. The cells were then loaded with a calcium-sensitive dye (Calcium-5 or Calcium-6, Molecular Devices) and the test compounds at a range of concentrations. Calcium flux following the addition of 15 μM glutamate was monitored using a Molecular Devices FLIPR Tetra.
The fluorescence in each well was normalized to the fluorescence of negative and positive control wells. […] The responses to glutamate as functions of the test compound concentrations were fitted to a four-parameter logistic function. The fitted parameter corresponding to the midpoint was taken to be the potency of inhibition of the compound.
As to `O=C1Cc2cc(-c3c(-c4ccc(F)cc4)nc4c(N5CCC5)nccn34)ccc2N1` [Example 58, 5-[8-(Azetidin-1-yl)-2-(4-fluorophenyl)imidazo[1,2-a]pyrazin-3-yl]indolin-2-one], the IC50 was 1.58 nM. As for `O=C1Cc2cc(-c3c(-c4ccc(F)cc4)nc4c(N5CC(F)C5)nccn34)ccc2N1` [Example 59, 5-[8-(3-Fluoroazetidin-1-yl)-2-(4-fluorophenyl)imidazo[1,2-a]pyrazin-3-yl]indolin-2-one], the IC50 is 0.501 nM. Turning to `O=C1Cc2cc(-c3c(-c4ccc(F)cc4)nc4c(N5CC(F)(F)C5)nccn34)ccc2N1` [Example 60, 5-[8-(3,3-Difluoroazetidin-1-yl)-2-(4-fluorophenyl)imidazo[1,2-a]pyrazin-3-yl]indolin-2-one], the IC50 was 1.58 nM. The value for `O=C1Cc2cc(-c3c(-c4ccc(F)cc4)nc4c(N5CC(Cl)C5)nccn34)ccc2N1` [Example 61, 5-[8-(3-Chloroazetidin-1-yl)-2-(4-fluorophenyl)imidazo[1,2-a]pyrazin-3-yl]indolin-2-one] was 1.58 nM; that for `CS(=O)(=O)C1CN(c2nccn3c(-c4ccc5c(c4)CC(=O)N5)c(-c4ccc(F)cc4)nc23)C1` [Example 62, 5-[2-(4-Fluorophenyl)-8-(3-methylsulfonylazetidin-1-yl)imidazo[1,2-a]pyrazin-3-yl]indolin-2-one] was 10 nM; that for `O=C1Cc2cc(-c3c(-c4ccc(F)cc4)nc4c(N5CC(CO)C5)nccn34)ccc2N1` [Example 64, 5-[2-(4-Fluorophenyl)-8-[3-(hydroxymethyl)azetidin-1-yl]imidazo[1,2-a]pyrazin-3-yl]indolin-2-one] was 0.794 nM. The same measure for `O=C1Cc2cc(-c3c(-c4ccccc4)nc4c(N5CCOCC5)nccn34)ccc2N1` [Example 65, 5-(8-Morpholino-2-phenyl-imidazo[1,2-a]pyrazin-3-yl)indolin-2-one]: 0.158 nM; for `N#CC1CN(c2nccn3c(-c4ccc5c(c4)CC(=O)N5)c(-c4ccc(F)cc4)nc23)C1` [Example 66, 1-[2-(4-Fluorophenyl)-3-(2-oxoindolin-5-yl)imidazo[1,2-a]pyrazin-8-yl]azetidine-3-carbonitrile]: 3.98 nM. For `CC1(O)CN(c2nccn3c(-c4ccc5c(c4)CC(=O)N5)c(-c4ccc(F)cc4)nc23)C1` [Example 67, 5-[2-(4-Fluorophenyl)-8-(3-hydroxy-3-methyl-azetidin-1-yl)imidazo[1,2-a]pyrazin-3-yl]indolin-2-one], the IC50 was 1.26 nM. The value for `CC1(O)CCN(c2nccn3c(-c4ccc5c(c4)CC(=O)N5)c(-c4ccc(F)cc4)nc23)CC1` [Example 68, 5-[2-(4-Fluorophenyl)-8-(4-hydroxy-4-methyl-1-piperidyl)imidazo[1,2-a]pyrazin-3-yl]indolin-2-one] was 0.1 nM; that for `O=C1Cc2cc(-c3c(-c4ccc(F)cc4)nc4c(N5CC(O)(C(F)(F)F)C5)nccn34)ccc2N1` [Example 69, 5-[2-(4-Fluorophenyl)-8-[3-hydroxy-3-(trifluoromethyl)azetidin-1-yl]imidazo[1,2-a]pyrazin-3-yl]indolin-2-one] was 1 nM; that for `O=C1Cc2cc(-c3c(-c4ccc(F)cc4)nc4c(N5CCC(O)C(F)(F)C5)nccn34)ccc2N1` (stereo not shown) [Example 71, 5-[8-(3,3-Difluoro-4-hydroxy-1-piperidyl)-2-(4-fluorophenyl)imidazo[1,2-a]pyrazin-3-yl]indolin-2-one] was 0.251 nM. For the compound `COC1CCN(c2nccn3c(-c4ccc5c(c4)CC(=O)N5)c(-c4ccc(F)cc4)nc23)CC1` [Example 72, 5-[2-(4-Fluorophenyl)-8-(4-methoxy-1-piperidyl)imidazo[1,2-a]pyrazin-3-yl]indolin-2-one], the IC50 is 0.126 nM. In the case of `O=C1Cc2cc(-c3c(-c4ccc(F)cc4)nc4c(N5CCC(F)CC5)nccn34)ccc2N1` [Example 74, 5-[2-(4-Fluorophenyl)-8-(4-fluoro-1-piperidyl)imidazo[1,2-a]pyrazin-3-yl]indolin-2-one], the IC50 was 0.0794 nM. The value for `O=C1Cc2cc(-c3c(-c4ccccc4)nc4c(N5CCC(F)CC5)nccn34)ccc2N1` [Example 75, 5-[8-(4-Fluoro-1-piperidyl)-2-phenyl-imidazo[1,2-a]pyrazin-3-yl]indolin-2-one] was 0.0631 nM; that for `O=C1Cc2cc(-c3c(-c4ccccc4)nc4c(N5CCC(CF)CC5)nccn34)ccc2N1` [Example 76, 5-[8-[4-(Fluoromethyl)-1-piperidyl]-2-phenyl-imidazo[1,2-a]pyrazin-3-yl]indolin-2-one] was 0.251 nM; that for `O=C1Cc2cc(-c3c(-c4ccccc4)nc4c(N5CCC(CCF)CC5)nccn34)ccc2N1` [Example 77, 5-[8-[4-(2-Fluoroethyl)-1-piperidyl]-2-phenyl-imidazo[1,2-a]pyrazin-3-yl]indolin-2-one] was 0.398 nM. The same measure for `COC1CN(c2nccn3c(-c4ccc5c(c4)CC(=O)N5)c(-c4ccccc4)nc23)C1` [Example 78, 5-[8-(3-Methoxyazetidin-1-yl)-2-phenyl-imidazo[1,2-a]pyrazin-3-yl]indolin-2-one]: 2 nM; for `O=C1Cc2cc(-c3c(-c4ccccc4)nc4c(N5CC6CC(C5)O6)nccn34)ccc2N1` [Example 79, 5-[8-(6-Oxa-3-azabicyclo[3.1.1]heptan-3-yl)-2-phenyl-imidazo[1,2-a]pyrazin-3-yl]indolin-2-one]: 0.501 nM; for `O=C1Cc2cc(-c3c(-c4ccccc4)nc4c(N5CC6(CC6)C5)nccn34)ccc2N1` [Example 80, 5-[8-(5-Azaspiro[2.3]hexan-5-yl)-2-phenyl-imidazo[1,2-a]pyrazin-3-yl]indolin-2-one]: 0.631 nM.

As to `O=C1Cc2cc(-c3c(-c4ccccc4)nc4c(N5CC(F)C5)nccn34)ccc2N1` [Example 81, 5-[8-(3-Fluoroazetidin-1-yl)-2-phenyl-imidazo[1,2-a]pyrazin-3-yl]indolin-2-one], the IC50 was 0.398 nM.

In the case of `O=c1[nH]c2ccc(-c3c(-c4ccc(F)cc4)nc4c(N5CCOCC5)ncc(Cl)n34)cc2[nH]1` [Example 82, 5-[5-Chloro-2-(4-fluorophenyl)-8-morpholino-imidazo[1,2-a]pyrazin-3-yl]-1,3-dihydrobenzimidazol-2-one], the IC50 was 0.316 nM.

Take `Oc1ccc(-c2c(-c3ccccc3F)nc3c(N4CCOCC4)nccn23)cc1` [Example 84, 4-[2-(2-Fluorophenyl)-8-morpholino-imidazo[1,2-a]pyrazin-3-yl]phenol]: the IC50 was 63.1 nM.

On to `Oc1ccc(-c2c(C3CCCCC3)nc3c(N4CCOCC4)nccn23)cc1` [Example 85, 4-(2-Cyclohexyl-8-morpholino-imidazo[1,2-a]pyrazin-3-yl)phenol], for which the IC50 was 200 nM. For `CC(C)(C)c1nc2c(N3CCOCC3)nccn2c1-c1ccc2c(c1)CC(=O)N2` [Example 86, 5-(2-tert-Butyl-8-morpholino-imidazo[1,2-a]pyrazin-3-yl)indolin-2-one], the IC50 was 158 nM. The same measure for `Nc1nccn2c(-c3ccc4[nH]c(=O)[nH]c4c3)c(-c3ccc(F)cc3)nc12` [Example 87, 5-[8-Amino-2-(4-fluorophenyl)imidazo[1,2-a]pyrazin-3-yl]-1,3-dihydrobenzimidazol-2-one]: 398 nM.

Take `CC(C)(C)c1nc2c(N3CCC(O)CC3)nccn2c1-c1ccc2c(c1)CC(=O)N2` [Example 88, 5-[2-tert-Butyl-8-(4-hydroxy-1-piperidyl)imidazo[1,2-a]pyrazin-3-yl]indolin-2-one]: the IC50 was 126 nM. The value for `O=C1Cc2cc(-c3c(-c4ccncc4)nc4c(N5CC(F)C5)nccn34)ccc2N1` [Example 89, 5-[8-(3-Fluoroazetidin-1-yl)-2-(4-pyridyl)imidazo[1,2-a]pyrazin-3-yl]indolin-2-one] was 200 nM; that for `O=C1Cc2cc(-c3c(C4CCC4)nc4c(N5CCOCC5)nccn34)ccc2N1` [Example 90, 5-(2-Cyclobutyl-8-morpholino-imidazo[1,2-a]pyrazin-3-yl)indolin-2-one] was 200 nM; that for `O=C1Cc2cc(-c3c(C4CC4)nc4c(N5CCOCC5)nccn34)ccc2N1` [Example 91, 5-(2-Cyclopropyl-8-morpholino-imidazo[1,2-a]pyrazin-3-yl)indolin-2-one] was 501 nM. The value for `CC(=O)N1CCCN(c2nccn3c(-c4ccc(O)cc4)c(-c4ccc(Cl)cc4)nc23)CC1` [Example 92, 1-[4-[2-(4-Chlorophenyl)-3-(4-hydroxyphenyl)imidazo[1,2-a]pyrazin-8-yl]-1,4-diazepan-1-yl]ethanone] was 25.1 nM.
